In patent US11420958B2, “Aryl and heteroaryl substituted indole compounds” (BRISTOL-MYERS SQUIBB COMPANY, priority 2017, dated 2022):

How the values were obtained:
Type in all cases: cell-based
human TLR9 = human TLR9 (Homo sapiens (Human), UniProt Q9NR96); experiment: TLR9 inhibition reporter assay (HEK-Blue, SEAP); conditions: HEK-Blue cells overexpressing human TLR9, ODN2006 5 nM stimulation
Description: (§1) TLR7/8/9 Inhibition Reporter Assays
(§2) HEK-Blue™-cells (Invivogen) overexpressing human TLR7, TLR8 or TLR9 receptors were used for screening inhibitors of these receptors using an inducible SEAP (secreted embryonic alkaline phosphatase) reporter gene under the control of the IFN-β minimal promoter fused to five NF-κc Band AP-1-binding sites. Briefly, cells are seeded into Greiner 384 well plates (15000 cells per well for TLR7, 20,000 for TLR8 and 25,000 for TLR9) and then treated with test compounds in DMSO to yield a final dose response concentration range of 0.05 nM-50 μM. After a 30 minute compound pre-treatment at room temperature, the cells are then stimulated with a TLR7 ligand (gardiquimod at a final concentration of 7.5 μM), TLR8 ligand (R848 at a final concentration of 15.9 μM) or TLR9 ligand (ODN2006 at final concentration of 5 nM) to activate NF-κB and AP-1 which induce the production of SEAP. After a 22 hour incubation at 37° C., 5% CO2, SEAP levels are determined with the addition of HEK-Bue™ Detection reagent (Invivogen), a cell culture medium that allows for detection of SEAP, according to manufacturer's specifications. The percent inhibition is determined as the % reduction in the HEK-Blue signal present in wells treated with agonist plus DMSO alone compared to wells treated with a known inhibitor.

human TLR7 = human TLR7 (Homo sapiens (Human), UniProt Q9NYK1); experiment: TLR7 inhibition reporter assay (HEK-Blue, SEAP); conditions: HEK-Blue cells overexpressing human TLR7, gardiquimod 7.5 μM stimulation
Sequence of human TLR7 (Q9NYK1 27-1049): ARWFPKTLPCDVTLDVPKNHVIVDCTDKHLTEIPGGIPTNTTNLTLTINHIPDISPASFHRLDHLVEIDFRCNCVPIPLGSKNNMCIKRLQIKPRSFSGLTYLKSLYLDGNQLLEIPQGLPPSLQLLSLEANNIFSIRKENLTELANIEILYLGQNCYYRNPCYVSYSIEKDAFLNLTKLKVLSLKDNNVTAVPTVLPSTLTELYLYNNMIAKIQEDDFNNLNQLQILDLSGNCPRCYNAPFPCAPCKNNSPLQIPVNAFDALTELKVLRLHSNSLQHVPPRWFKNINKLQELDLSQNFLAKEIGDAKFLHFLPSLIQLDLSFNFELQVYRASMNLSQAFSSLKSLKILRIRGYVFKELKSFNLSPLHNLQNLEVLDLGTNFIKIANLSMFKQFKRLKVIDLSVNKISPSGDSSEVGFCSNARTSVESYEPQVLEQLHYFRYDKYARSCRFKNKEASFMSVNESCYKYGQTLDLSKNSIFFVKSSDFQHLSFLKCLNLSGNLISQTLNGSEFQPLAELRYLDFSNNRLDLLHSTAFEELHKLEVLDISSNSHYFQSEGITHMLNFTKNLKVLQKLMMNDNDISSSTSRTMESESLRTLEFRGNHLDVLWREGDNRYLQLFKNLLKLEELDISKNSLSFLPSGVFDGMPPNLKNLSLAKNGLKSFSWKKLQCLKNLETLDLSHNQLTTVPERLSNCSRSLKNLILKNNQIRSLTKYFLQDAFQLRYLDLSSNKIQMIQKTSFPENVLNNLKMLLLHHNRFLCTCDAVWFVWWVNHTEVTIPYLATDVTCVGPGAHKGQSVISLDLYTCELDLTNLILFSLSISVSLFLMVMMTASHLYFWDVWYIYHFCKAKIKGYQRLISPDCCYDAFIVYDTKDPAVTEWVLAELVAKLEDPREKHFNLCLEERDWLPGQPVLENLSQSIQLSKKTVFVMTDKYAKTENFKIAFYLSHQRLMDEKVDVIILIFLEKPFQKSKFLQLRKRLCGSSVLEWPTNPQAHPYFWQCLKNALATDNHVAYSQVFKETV
Description: as §1, §2

human TLR8 = human TLR8 (Homo sapiens (Human), UniProt Q9NR97); experiment: TLR8 inhibition reporter assay (HEK-Blue, SEAP); conditions: HEK-Blue cells overexpressing human TLR8, R848 15.9 μM stimulation
Sequence of human TLR8 (Q9NR97 27-1041): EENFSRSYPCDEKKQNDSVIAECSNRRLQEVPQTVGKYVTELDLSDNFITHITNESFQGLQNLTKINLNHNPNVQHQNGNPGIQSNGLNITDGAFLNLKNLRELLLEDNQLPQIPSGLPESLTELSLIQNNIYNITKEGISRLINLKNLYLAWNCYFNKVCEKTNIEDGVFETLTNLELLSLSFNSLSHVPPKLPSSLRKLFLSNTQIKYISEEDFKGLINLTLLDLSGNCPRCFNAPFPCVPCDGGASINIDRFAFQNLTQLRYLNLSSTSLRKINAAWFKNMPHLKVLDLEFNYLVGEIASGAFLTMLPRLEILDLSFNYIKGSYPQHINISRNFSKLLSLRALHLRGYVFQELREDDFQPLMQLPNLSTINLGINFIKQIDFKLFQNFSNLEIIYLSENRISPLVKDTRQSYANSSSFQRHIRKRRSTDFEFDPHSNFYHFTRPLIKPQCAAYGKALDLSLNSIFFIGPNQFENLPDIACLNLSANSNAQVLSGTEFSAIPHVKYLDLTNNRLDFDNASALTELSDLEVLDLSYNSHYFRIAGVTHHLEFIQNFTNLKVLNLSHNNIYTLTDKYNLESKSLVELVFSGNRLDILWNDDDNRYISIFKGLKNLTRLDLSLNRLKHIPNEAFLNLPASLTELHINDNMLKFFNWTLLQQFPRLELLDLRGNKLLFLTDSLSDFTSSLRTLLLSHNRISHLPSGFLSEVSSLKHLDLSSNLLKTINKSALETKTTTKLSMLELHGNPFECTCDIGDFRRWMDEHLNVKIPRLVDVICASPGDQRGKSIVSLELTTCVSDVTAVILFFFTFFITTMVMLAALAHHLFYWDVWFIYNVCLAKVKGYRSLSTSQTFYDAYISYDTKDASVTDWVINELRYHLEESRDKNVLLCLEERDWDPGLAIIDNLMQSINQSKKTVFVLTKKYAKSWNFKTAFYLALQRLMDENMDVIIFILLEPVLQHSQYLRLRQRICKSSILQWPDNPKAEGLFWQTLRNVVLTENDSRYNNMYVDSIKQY
Description: as §1, §2

Sequence of human TLR9 (Q9NR96 26-1032): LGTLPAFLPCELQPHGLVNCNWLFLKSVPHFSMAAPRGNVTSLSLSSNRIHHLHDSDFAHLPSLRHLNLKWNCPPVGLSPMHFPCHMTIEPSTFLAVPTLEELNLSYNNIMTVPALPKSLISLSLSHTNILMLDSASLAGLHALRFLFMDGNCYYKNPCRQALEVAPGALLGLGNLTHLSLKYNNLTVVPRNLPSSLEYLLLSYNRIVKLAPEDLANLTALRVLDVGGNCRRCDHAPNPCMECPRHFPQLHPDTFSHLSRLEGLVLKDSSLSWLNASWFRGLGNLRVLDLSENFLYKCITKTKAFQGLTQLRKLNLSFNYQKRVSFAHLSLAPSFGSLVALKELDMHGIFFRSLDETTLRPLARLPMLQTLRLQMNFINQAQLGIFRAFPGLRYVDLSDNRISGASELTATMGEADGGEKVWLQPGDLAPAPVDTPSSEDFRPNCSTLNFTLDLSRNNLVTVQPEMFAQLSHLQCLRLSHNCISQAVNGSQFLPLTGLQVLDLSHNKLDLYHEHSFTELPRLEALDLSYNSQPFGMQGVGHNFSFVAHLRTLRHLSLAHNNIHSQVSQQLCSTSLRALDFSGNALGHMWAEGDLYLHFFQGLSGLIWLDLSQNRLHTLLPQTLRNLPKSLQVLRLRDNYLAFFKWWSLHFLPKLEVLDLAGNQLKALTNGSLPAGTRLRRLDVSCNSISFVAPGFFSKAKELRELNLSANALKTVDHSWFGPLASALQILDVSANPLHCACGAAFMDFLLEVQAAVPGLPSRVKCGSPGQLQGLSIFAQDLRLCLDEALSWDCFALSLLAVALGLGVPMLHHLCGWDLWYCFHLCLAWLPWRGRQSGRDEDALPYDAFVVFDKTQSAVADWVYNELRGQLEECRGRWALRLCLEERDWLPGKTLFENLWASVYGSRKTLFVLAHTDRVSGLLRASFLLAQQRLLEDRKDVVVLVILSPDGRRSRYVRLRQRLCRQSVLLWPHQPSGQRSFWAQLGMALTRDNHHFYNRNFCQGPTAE

SMILES | IC50 (human TLR9) | IC50 (human TLR7) | IC50 (human TLR8)
COc1ccc(-c2[nH]c3ccc(-c4cccc(C(=O)N5CCN(C6CCN(C)CC6)CC5)c4)cc3c2CC(F)(F)F)cc1OC [Example 37, (3-(2-(3,4-dimethoxyphenyl)-3-(2,2,2-trifluoroethyl)-1H-indol-5-yl)phenyl)(4-(1-methylpiperidin-4-yl)piperazin-1-yl)methanone] | 2320 nM | 405 nM | 139 nM
CCc1c(-c2ccc(OC)c(OC)c2)[nH]c2ccc(-c3nnc(C(=O)N(C)C)o3)cc12 [Example 38, 5-(2-(3,4-dimethoxyphenyl)-3-ethyl-1H-indol-5-yl)-N,N-dimethyl-1,3,4-oxadiazole-2-carboxamide] | > 50000 nM | 1030 nM | 151 nM
CCc1c(-c2ccc(OC)c(OC)c2)[nH]c2ccc(-c3nnc(C(=O)NC4CCN(C(C)C)CC4)o3)cc12 [Example 39, 5-(2-(3,4-dimethoxyphenyl)-3-ethyl-1H-indol-5-yl)-N-(1-isopropylpiperidin-4-yl)-1,3,4-oxadiazole-2-carboxamide] | 433 nM | 93 nM | 7.9 nM
CCc1c(-c2ccc(OC)c(OC)c2)[nH]c2ccc(-c3nnc(C(=O)N4CC5CNCC5C4)o3)cc12 (stereo not drawn) [Example 40, (5-(2-(3,4-dimethoxyphenyl)-3-ethyl-1H-indol-5-yl)-1,3,4-oxadiazol-2-yl)(hexahydropyrrolo[3,4-c]pyrrol-2(1H)-yl)methanone] | 325 nM | 154 nM | 18 nM
CCc1c(-c2ccc(OC)c(OC)c2)[nH]c2ccc(-c3nnc(C(N)=O)o3)cc12 [Example 41, 5-(2-(3,4-dimethoxyphenyl)-3-ethyl-1H-indol-5-yl)-1,3,4-oxadiazole-2-carboxamide] | > 50000 nM | 749 nM | 173 nM
COc1ccc(-c2[nH]c3ccc(-c4cccc(C(=O)N5CC6CNCC6C5)c4)cc3c2CC(F)(F)F)cc1OC (stereo not drawn) [Example 42, (3-(2-(3,4-dimethoxyphenyl)-3-(2,2,2-trifluoroethyl)-1H-indol-5-yl)phenyl)(hexahydropyrrolo[3,4-c]pyrrol-2(1H)-yl)methanone] | 710 nM | 448 nM | 27 nM
COc1ccc(-c2[nH]c3ccc(-c4nnc(CCN(C)C)o4)cc3c2C(C)C)cc1OC [Example 43, 2-(5-(2-(3,4-dimethoxyphenyl)-3-isopropyl-1H-indol-5-yl)-1,3,4-oxadiazol-2-yl)-N,N-dimethylethan-1-amine] | 1460 nM | 40 nM | 2 nM
COc1ccc(-c2[nH]c3ccc(-c4nnc(CN(C)C)o4)cc3c2C(C)C)cc1OC [Example 44, 1-(5-(2-(3,4-dimethoxyphenyl)-3-isopropyl-1H-indol-5-yl)-1,3,4-oxadiazol-2-yl)-N,N-dimethylmethanamine] | 12100 nM | 266 nM | 14 nM
COc1ccc(-c2[nH]c3ccc(-c4nnc(Cc5c[nH]cn5)o4)cc3c2C(C)C)cc1OC [Example 45, 2-((1H-imidazol-4-yl)methyl)-5-(2-(3,4-dimethoxyphenyl)-3-isopropyl-1H-indol-5-yl)-1,3,4-oxadiazole] | > 50000 nM | 154 nM | 16 nM
COc1ccc(-c2[nH]c3ccc(-c4nnc(C5CCCN(C)C5)o4)cc3c2C(C)C)cc1OC (stereo not drawn) [Example 46, 2-(2-(3,4-dimethoxyphenyl)-3-isopropyl-1H-indol-5-yl)-5-(1-methylpiperidin-3-yl)-1,3,4-oxadiazole] | 1080 nM | 39 nM | 6.2 nM
COc1ccc(-c2[nH]c3ccc(-c4nnc(CCn5ccnc5)o4)cc3c2C(C)C)cc1OC [Example 47, 2-(2-(1H-imidazol-1-yl)ethyl)-5-(2-(3,4-dimethoxyphenyl)-3-isopropyl-1H-indol-5-yl)-1,3,4-oxadiazole] | 19100 nM | 194 nM | 82 nM
